Laboratory results: US20250171821A1, “HIF-1 ACTIVATORS AND USES THEREOF” (Ramot at Tel-Aviv University Ltd., priority 2022, published 2025)
“Also recorded” adds a separate entry of the source.

Key:
[1] = tested on: human gingival fibroblasts cells (HGF); test: Collagen-I immunofluorescence in human fibroblasts treated with ML228; assay type: cell-based; conditions: 48 hours
Description: Human fibroblasts were isolated from fragments of healthy masticatory oral mucosa (from the posterior hard palate) collected during periodontal surgeries. Informed consent was obtained from all patients. Shallow tissue samples (without submucosa) with a diameter of approximately 2 mm were excised using a #15C scalpel blade. Exclusion criteria for potential tissue donors were smoking, any systemic disease, pregnancy or lactation, or a history of periodontal disease. Cells were separated into connective tissue and epithelium using dispase II (Sigma-Aldrich, Rehovot, Israel) at 2 mg/mL for two hours at 37° C.
Cells were cultured to sub-confluence on a 96-well plate culture plate or on round-glass cover slips in a 24 well plate and incubated with ML228 at 37° C. in 5% CO2 for 24-96 hours. Cells were fixed for 20 minutes with 4% paraformaldehyde in phosphate-buffered saline (PBS), washed 3 times with PBS, blocked with 2% bovine serum albumin diluted in PBS, which contains 0.1% Triton X-100 for 20 minutes. Fixed cells were incubated with 1:200 of rabbit anti-human type I collagen (Abcam, Cambridge, UK) for 1 hour at 25° C. […] Fluorescence readouts were obtained with excitation/emission (ex/em) of 495/519 nanometer (nm; green) and 340/488 nm (blue) (for FIGS. 2B and 2D); or with ex/em of 358/461 nm (blue), 495/519 nm (green) and 652/668 nm (red) (for FIG. 5A).
(§1) All images were analyzed with the computer-based image analysis system (Image J) using the Fiji 2 software (National Institute of Health). Equal field areas were selected for analysis and quantification of fluorescence signals. Quantification of fluorescence signal intensity measured by color threshold and normalized against β-tubulin intensity. Total collagen was evaluated by total fluorescence area intensity.
The effect of ML228 (chemical structure thereof is depicted in FIG. 1), a known activator of HIF, on fibroblasts and osteoblasts was analyzed. […] Collagen-I levels were evaluated by immunohistochemistry via Collagen-I antibody and a fluorescently-labeled secondary antibody. […]

MG-63 osteoblasts = test: Collagen-I immunofluorescence in MG-63 osteoblasts treated with ML228; assay type: cell-based, human
Experimental: (§2) MG-63 human osteosarcoma cell lines were obtained from the American Type Culture Collection (ATCC, Manassas, VA, USA). Cells were cultured in α-MEM supplemented with 10% FCS, 100 U/ml penicillin, and […] streptomycin at 37° C. in a humidified atmosphere incubator containing 5% CO2. Before treatment with ML228, 5,000 and 50,000 cells/well were seeded in a 96 or 24 well-plate, respectively.
Cells were cultured to sub-confluence on a 96-well plate culture plate or on round-glass cover slips in a 24 well plate and incubated with ML228 at 37° C. in 5% CO2 for 24-96 hours. […] Fluorescence readouts were obtained with excitation/emission (ex/em) of 495/519 nanometer (nm; green) and 340/488 nm (blue) (for FIGS. 2B and 2D); or with ex/em of 358/461 nm (blue), 495/519 nm (green) and 652/668 nm (red) (for FIG. 5A).
as §1
The effect of ML228 (chemical structure thereof is depicted in FIG. 1), a known activator of HIF, on fibroblasts and osteoblasts was analyzed. […]

osteoblasts = test: Cell-Titer assay of cellular ATP levels, osteoblasts; assay type: cell-based; conditions: 48 hours
Experimental: as §2
(§3) The live/dead viability assay (cat #04511-1KT-F Merck, Germany) was used according to the manufacturer's protocol. Briefly, cells were incubated in a medium supplemented with the indicated concentrations of ML228 for 48 hours. Fluorescein diacetate (6.6 μg/mL) and propidium iodide (5 μg/mL) (Merck, NJ, USA) were prepared in DMEM and added to the cells. Confocal images were captured after addition of the dyes with ZEISS LSM 900, Laser Scanning Microscope. Fluorescence readouts were obtained with ex/em of 490/515 nm and 535/617 nm for green and red, respectively. Cellular ATP levels were quantified using the cell-titer assay (Promega, WI, USA cat #G7570).

fibroblast cells = test: live/dead viability assay, fibroblasts; assay type: cell-based; conditions: ML228 0.62 and 5 μM, 48 hours
Experimental: as §3

MG-63 cells = test: live/dead viability assay, osteoblasts; assay type: cell-based; conditions: MG-63 osteoblasts, ML228 0.62 and 5 μM, 48 hours
Experimental: as §3

NIH/3T3 cell line = test: Cell confluence / number of cells per image in NIH/3T3 cells; assay type: cell-based, mouse; conditions: 0.63-5 μM ML228, 48 hours, p<0.0001
Experimental: Embryonic mouse fibroblast NIH/3T3 cell line (ATCC) were seeded at a concentration of 50*10^3 cells/well on 96 well glass bottom plate (P96-1.5H-N, Cellvis) for the immunofluorescence experiment and on cell culture microplate, 96 well, PS, F-Bottom (655090, greiner) for the viability experiment. The cells were cultured with Dulbecco's modified Eagle's medium (DMEM) supplemented with 10% fetal calf serum, 1% Penicillin-Streptomycin solution and 1% L-glutamine (All purchased from Rhenium). At 24 hours post seeding, cells were treated for another 48 hours by replacing them with the cell medium supplemented with a serial dilution (5-0.02 μM, factor dilution of 2) of the ML228, Daprodustat, Enarodustat, Molidustat, Vadadustat or Roxadustat molecules dissolved in DMSO. The final DMSO concentration in the cell medium was 0.01%. Cells were maintained in an incubator at 37° C. in a humidified atmosphere containing 5% CO2.
Image acquisition and quantification were performed by Incucyte SX5 (Sartorius) using software version 2022B Rev2. A standard scan was done for 9 images per well using 20× objective, 2 optical modules (green at excitation/emission of 453-485 nm/494-533 nm in 300 msec acquisition time, and near-IR at excitation/emission of 648-674 nm/685-756 nm in 400 msec acquisition time, including Phase channel) following immunofluorescence protocol. For the image analysis, 2-6 replicates per condition were used. Using the Basic Analyzer mode, “Phase Object Confluence (%)” was acquired using the Phase channel. This measurement is the percentage of the image area occupied by cells. “Total Collagen-I Integrated Intensity Per Image (GCU×μm^2/Image)” was acquired using the green optical module. GCU stands for Green calibrated Unit, while this measurement is the total sum of the Collagen-I objects' fluorescent intensity in the image. “#Cells (Per image)” was acquired by the near-IR optical module. This measurement was calculated by counting the number of nuclei per image.
Multiple comparisons were performed by ordinary one-way ANOVA followed by Dunnett's post-hoc statistical hypothesis for comparing each condition mean to the control mean. Statistical analysis was done using GraphPad Prism version 10.0.0 for Windows, GraphPad Software, Boston, Massachusetts USA, worldwideweb(dot)graphpad(dot)com. For statistical analysis, significance was set as (*) p≤0.05; (**) p≤0.01; (***) p≤0.001; (****) p≤0.0001 and (ns; not significant) p>0.05.

Structure (SMILES): c1ccc(-c2ccc(CNc3nc(-c4ccccn4)nnc3-c3ccccc3)cc2)cc1 [ML228, N-([1,1′-Biphenyl]-4-ylmethyl)-6-phenyl-3-(2-pyridinyl)-1,2,4-triazin-5-amine]
- Collagen-I levels compared to baseline of non-treated cells ([1]; ML228 above 312 nM, normalized to cell number (DAPI), FIG. 5C): more than two-fold higher
- Collagen-I levels at higher concentrations ([1]; ML228 above 10 μM (10 or 20 μM), HGF cells): gradually decrease
- concentration at which maximum collagen levels were observed ([1]; fibroblasts): 5 µM
- concentration of maximum enhancement of Collagen-I (MG-63 osteoblasts; MG-63, 48 hours, normalized to cell number (DAPI), FIG. 9B): 5 µM
- increase in collagen levels compared to non-treated cells (MG-63 osteoblasts; osteoblasts (MG-63), variable ML228 concentrations, 48 hours): more than a three-fold increase; also recorded: increased
- IC50 (osteoblasts; Homo sapiens, Osteoblast, read-out: IC50 (ATP levels relative to non-treated cells)): 567 nM
- metabolically active cell viability as measured by ATP levels (osteoblasts; increasing ML228 concentrations): decrease in metabolically active cell viability
- cell death / cellular toxicity (live/dead assay) (fibroblast cells): without imparting cellular toxicity; also recorded: without imparting cellular death; also recorded: not an increase in cell death
- cell death / cellular toxicity (live/dead assay) (MG-63 cells): without imparting cellular toxicity; also recorded: Almost no dead cells were observed; also recorded: not an increase in cell death
- cell confluence vs untreated cells (NIH/3T3 cell line): significant reduction
